Test results from patent US11208412B2 (DAEGU-GYEONGBUK MEDICAL INNOVATION FOUNDATION, priority 2017, dated 2021).
Like-named read-outs stand apart in the source and are kept apart here.

Tests used:
Assay in all cases: Kinase selectivity, DiscoverX scanMAX Kinase assay panel (% control)
Format in all cases: binding
[1] = molecular target: T1, kinases of the scanMAX Kinase assay panel (Homo sapiens, UniProt P54756); settings: EPHA5; 1 uM
T1 construct: purchased DiscoverX Co. (contract measurement) scanMAX Kinase assay panel
T1 sequence (P54756 25-1037): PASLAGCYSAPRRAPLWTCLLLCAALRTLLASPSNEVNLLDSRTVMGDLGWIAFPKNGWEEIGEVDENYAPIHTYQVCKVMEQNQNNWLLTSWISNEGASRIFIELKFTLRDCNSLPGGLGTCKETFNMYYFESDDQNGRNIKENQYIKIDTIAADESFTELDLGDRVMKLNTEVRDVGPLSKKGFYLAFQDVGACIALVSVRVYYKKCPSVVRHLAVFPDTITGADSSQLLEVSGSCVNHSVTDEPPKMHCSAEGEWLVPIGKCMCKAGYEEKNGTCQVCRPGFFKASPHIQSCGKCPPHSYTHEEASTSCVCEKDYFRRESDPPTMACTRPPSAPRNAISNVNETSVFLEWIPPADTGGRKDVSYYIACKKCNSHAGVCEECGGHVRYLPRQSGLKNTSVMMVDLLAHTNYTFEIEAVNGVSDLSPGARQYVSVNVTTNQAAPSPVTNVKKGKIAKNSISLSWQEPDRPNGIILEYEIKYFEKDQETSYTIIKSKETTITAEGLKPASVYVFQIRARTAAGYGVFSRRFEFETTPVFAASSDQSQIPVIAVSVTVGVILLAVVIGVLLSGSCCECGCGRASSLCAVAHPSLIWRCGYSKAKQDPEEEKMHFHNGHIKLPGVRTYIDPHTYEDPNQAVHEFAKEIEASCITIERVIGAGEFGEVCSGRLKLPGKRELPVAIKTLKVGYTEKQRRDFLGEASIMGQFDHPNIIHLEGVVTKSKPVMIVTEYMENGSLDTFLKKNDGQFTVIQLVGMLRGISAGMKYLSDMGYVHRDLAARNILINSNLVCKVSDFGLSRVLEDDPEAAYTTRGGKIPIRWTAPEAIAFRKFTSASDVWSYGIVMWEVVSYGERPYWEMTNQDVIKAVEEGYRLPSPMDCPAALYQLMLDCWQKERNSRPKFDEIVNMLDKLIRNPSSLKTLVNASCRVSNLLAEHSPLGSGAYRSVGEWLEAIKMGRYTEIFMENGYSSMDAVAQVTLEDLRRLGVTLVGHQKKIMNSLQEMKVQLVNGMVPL
Summary of the method: (§1)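 Single-point screen, 1 uM cpd in DMSO. % ctrl = (cpd − pos ctrl)/(neg ctrl − pos ctrl)×100; pos ctrl = 0%, DMSO neg ctrl = 100%. Hit cutoff <35%.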

[2] = molecular target: T2, kinases of the scanMAX Kinase assay panel (Homo sapiens, UniProt P42336, H1047L); settings: PIK3CA(H1047L); 1 uM
T2 construct: purchased DiscoverX Co. (contract measurement) scanMAX Kinase assay panel
T2 sequence (P42336 whole entry H1047L): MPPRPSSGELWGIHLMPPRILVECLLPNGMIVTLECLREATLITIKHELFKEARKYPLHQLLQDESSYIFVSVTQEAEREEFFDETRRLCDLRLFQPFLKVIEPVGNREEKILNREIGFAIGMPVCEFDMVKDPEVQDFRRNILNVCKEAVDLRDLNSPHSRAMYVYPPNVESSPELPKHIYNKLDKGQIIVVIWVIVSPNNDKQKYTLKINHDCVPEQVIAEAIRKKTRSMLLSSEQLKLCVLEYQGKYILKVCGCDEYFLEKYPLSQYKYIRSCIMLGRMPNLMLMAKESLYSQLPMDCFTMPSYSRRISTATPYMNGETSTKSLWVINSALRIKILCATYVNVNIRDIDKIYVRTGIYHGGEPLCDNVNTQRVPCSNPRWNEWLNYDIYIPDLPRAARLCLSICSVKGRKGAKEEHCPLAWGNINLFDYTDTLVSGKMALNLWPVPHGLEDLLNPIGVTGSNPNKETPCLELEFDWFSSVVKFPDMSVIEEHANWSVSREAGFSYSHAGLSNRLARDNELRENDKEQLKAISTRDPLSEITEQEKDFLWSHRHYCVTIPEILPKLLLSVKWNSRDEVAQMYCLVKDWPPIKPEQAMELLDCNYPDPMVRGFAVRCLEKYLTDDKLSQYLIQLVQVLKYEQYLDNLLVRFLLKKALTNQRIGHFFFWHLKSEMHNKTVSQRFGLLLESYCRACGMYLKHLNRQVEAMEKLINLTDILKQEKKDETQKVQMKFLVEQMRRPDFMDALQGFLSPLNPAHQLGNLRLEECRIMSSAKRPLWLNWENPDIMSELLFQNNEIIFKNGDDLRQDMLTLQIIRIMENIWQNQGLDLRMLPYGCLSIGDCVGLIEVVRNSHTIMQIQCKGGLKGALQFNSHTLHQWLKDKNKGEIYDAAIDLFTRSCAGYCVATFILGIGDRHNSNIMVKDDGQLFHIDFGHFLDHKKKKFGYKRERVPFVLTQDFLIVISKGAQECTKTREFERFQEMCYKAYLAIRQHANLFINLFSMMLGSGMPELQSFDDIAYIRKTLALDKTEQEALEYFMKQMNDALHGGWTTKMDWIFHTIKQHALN
Summary of the method: as §1

[3] = molecular target: T3, kinases of the scanMAX Kinase assay panel (Homo sapiens, UniProt P80192); settings: MLK1; 1 uM
T3 construct: purchased DiscoverX Co. (contract measurement) scanMAX Kinase assay panel
Summary of the method: as §1

[4] = molecular target: T4, kinases of the scanMAX Kinase assay panel (Homo sapiens, UniProt P00519, E255K); settings: ABL1(E255K)-phosphorylated; 1 uM
T4 construct: purchased DiscoverX Co. (contract measurement) scanMAX Kinase assay panel
T4 sequence (P00519 whole entry E255K): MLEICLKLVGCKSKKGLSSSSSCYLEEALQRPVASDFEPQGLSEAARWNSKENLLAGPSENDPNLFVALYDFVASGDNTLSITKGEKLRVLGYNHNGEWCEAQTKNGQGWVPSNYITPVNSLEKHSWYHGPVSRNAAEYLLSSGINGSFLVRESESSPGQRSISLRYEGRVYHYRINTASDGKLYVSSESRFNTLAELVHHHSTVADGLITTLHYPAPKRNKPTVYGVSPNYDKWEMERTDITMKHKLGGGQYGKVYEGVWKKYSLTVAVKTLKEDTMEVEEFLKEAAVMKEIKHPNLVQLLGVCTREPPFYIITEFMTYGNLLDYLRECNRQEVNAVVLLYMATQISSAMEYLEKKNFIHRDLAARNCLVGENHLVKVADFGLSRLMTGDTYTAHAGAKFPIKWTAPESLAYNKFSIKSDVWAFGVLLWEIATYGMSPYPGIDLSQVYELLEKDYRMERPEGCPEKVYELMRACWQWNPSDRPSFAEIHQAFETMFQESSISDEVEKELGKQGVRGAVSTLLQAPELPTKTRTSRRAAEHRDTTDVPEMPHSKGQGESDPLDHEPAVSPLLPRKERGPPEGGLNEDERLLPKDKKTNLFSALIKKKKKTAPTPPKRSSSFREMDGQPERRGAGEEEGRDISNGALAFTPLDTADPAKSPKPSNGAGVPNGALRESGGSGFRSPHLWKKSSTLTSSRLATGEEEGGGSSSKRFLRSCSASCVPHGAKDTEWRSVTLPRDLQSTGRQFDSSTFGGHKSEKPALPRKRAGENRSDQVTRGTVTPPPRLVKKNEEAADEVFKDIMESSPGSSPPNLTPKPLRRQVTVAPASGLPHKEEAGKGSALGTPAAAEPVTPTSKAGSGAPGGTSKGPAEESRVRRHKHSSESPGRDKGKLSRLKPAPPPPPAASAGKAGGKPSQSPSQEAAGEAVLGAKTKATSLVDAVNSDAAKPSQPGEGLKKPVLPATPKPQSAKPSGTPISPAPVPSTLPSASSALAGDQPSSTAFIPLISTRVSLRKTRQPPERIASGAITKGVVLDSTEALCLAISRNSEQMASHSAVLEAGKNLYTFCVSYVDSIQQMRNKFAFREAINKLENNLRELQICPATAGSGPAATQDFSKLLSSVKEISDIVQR
Summary of the method: as §1

[5] = molecular target: T5, kinases of the scanMAX Kinase assay panel (Homo sapiens, UniProt O75676); settings: 1 uM in DMSO
T5 construct: purchased DiscoverX Co. (contract measurement) scanMAX Kinase assay panel
T5 sequence (O75676 whole entry): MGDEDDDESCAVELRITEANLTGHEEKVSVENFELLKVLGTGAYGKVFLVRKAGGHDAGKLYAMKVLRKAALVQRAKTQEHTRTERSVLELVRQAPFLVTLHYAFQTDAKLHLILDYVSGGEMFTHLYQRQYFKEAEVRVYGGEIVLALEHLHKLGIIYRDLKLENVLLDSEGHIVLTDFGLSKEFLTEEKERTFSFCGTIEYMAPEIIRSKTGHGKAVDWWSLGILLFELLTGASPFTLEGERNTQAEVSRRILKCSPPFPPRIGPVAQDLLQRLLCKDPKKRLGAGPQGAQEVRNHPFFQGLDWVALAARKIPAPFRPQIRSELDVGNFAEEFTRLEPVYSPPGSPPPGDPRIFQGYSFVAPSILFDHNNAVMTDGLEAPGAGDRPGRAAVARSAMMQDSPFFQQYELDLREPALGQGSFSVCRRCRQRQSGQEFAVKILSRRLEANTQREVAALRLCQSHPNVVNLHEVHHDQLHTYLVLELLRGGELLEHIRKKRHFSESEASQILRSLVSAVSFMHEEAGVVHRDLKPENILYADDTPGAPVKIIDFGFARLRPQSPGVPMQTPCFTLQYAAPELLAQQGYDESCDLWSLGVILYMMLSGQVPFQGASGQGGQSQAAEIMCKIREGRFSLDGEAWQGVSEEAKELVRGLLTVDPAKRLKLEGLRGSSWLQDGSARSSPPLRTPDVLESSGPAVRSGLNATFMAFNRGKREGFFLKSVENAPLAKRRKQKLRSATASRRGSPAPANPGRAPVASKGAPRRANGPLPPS
Summary of the method: as §1

[6] = molecular target: T6, kinases of the scanMAX Kinase assay panel (Homo sapiens, UniProt O14733); settings: MKK7; 1 uM
T6 construct: purchased DiscoverX Co. (contract measurement) scanMAX Kinase assay panel
T6 sequence (O14733 1-419): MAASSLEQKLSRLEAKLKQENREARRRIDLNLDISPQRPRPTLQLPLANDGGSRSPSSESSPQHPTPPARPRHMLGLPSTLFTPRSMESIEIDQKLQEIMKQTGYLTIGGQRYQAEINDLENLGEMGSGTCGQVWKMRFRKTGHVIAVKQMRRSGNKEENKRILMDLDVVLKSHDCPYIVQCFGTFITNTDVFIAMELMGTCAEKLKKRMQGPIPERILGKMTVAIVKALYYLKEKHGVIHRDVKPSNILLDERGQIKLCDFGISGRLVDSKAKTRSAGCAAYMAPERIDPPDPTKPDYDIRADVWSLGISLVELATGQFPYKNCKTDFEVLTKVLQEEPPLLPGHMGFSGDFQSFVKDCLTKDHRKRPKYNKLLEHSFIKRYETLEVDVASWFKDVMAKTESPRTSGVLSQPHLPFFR
Summary of the method: as §1

[7] = molecular target: T7, kinases of the scanMAX Kinase assay panel (Homo sapiens, UniProt Q13873); settings: BMPR2; 1 uM
T7 construct: purchased DiscoverX Co. (contract measurement) scanMAX Kinase assay panel
T7 sequence (Q13873 27-1038): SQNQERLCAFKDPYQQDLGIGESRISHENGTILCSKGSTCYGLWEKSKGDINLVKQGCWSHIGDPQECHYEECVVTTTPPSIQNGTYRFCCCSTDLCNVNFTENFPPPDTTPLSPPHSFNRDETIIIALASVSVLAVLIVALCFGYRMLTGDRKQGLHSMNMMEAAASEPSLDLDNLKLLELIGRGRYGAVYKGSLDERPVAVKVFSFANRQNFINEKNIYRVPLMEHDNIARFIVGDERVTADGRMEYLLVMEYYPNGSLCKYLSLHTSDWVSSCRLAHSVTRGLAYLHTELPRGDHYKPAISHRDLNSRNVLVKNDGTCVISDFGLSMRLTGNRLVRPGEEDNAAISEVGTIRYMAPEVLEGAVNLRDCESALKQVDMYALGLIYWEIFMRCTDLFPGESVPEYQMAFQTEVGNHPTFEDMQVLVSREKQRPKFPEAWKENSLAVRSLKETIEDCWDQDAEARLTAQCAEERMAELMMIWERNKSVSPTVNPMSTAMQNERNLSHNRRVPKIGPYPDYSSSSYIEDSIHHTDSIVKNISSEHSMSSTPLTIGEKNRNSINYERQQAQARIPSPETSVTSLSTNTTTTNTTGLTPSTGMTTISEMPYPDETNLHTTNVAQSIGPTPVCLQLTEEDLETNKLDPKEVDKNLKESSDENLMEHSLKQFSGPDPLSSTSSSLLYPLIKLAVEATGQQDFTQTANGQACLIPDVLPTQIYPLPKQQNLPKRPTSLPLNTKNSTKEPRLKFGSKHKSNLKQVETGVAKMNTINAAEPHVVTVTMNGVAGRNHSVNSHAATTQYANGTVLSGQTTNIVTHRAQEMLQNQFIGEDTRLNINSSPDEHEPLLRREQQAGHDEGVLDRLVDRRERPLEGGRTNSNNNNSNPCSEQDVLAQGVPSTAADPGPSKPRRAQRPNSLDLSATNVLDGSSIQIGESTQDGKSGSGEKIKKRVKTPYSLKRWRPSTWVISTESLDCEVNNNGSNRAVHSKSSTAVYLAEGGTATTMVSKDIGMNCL
Summary of the method: as §1

[8] = molecular target: T8, kinases of the scanMAX Kinase assay panel (Homo sapiens, UniProt P42336, I800L); settings: PIK3CA(I800L); 1 uM
T8 construct: purchased DiscoverX Co. (contract measurement) scanMAX Kinase assay panel
T8 sequence (P42336 whole entry I800L): as the sequence (P42336 whole entry H1047L) above, with I800L, L1047H counted along it
Summary of the method: as §1

[9] = kinase RPS6KA4(Kin.Dom.1-N-terminal), read-out: % control, RPS6KA4(Kin.Dom.1-N-terminal)
[10] = kinase RPS6KA4(Kin.Dom.2-C-terminal), read-out: % control, RPS6KA4(Kin.Dom.2-C-terminal)

Row | Structure (SMILES) | remaining binding at 1 µM [1] | remaining binding at 1 µM [2] | remaining binding at 1 µM [3] | remaining binding at 1 µM [4] | remaining binding at 1 µM [5, 9] | remaining binding at 1 µM [5, 10] | remaining binding at 1 µM [6] | remaining binding at 1 µM [7] | remaining binding at 1 µM [8]
1 | CNc1nc(Nc2ccc(C(=O)N3CCOCC3)cc2OC)nc2[nH]cc(C#N)c12 [Example 1, 2-((2-methoxy-4-(morpholine-4-carbonyl)phenyl)amino)-4-(methylamino)-7H-pyrrolo[2,3-d]pyrimidine-5-carbonitrile] | 87% | 100% | 81% | 91% | 92% | 0.2% | 48% | 79% | 100%
2 | CC1(Nc2nc(Nc3cnn([C@H]4CCN(C5COC5)C[C@@H]4F)c3Cl)nc3[nH]cc(C#N)c23)CC1 [Example 52, 2-((5-chloro-1-((3S,4S)-3-fluoro-1-(oxetane-3-yl)piperidine-4-yl)-1H-pyrazole-4-yl)amino)((1-methylcyclopropyl)amino)-7H-pyrrolo[2,3-d]pyrimidine-5-carbonitrile] | 79% | 70% | 0.5% | 0.6% | 68% | 2.2% | 6.1% | 0.65% | 0.1%
3 | CCNc1nc(Nc2ccc(C(=O)N3CCC(N4CCOCC4)CC3)cc2OC)nc2[nH]cc(C(F)(F)F)c12 [Example 104, (4-((4-(ethylamino)-5-(trifluoromethyl)-7H-pyrrolo[2,3-d]pyrimidine-2-yl)amino)-3-methoxyphenyl)(4-morpholinopiperidine-1-yl)methanone] | 100% | 88% | 66% | 100% | 100% | 18% | 100% | 100% | 72%
